From patent US20240217978A1 (CHONG KUN DANG PHARMACEUTICAL CORP., priority 2021, published 2024)

Target: human adenosine A2a receptor (Homo sapiens (Human), UniProt P29274)
Experiment: A2a receptor binding affinity, [3H]-NECA radioligand binding test
Settings: [3H]-NECA 37 nM; membrane from HEK-293 cells transfected with human adenosine A2a receptor
Description: The binding affinity of the compounds according to Examples of the present invention to the human adenosine A2a receptor was evaluated by entrusting SB drug discovery in the UK.
A radioligand binding test was conducted by using [3H]-NECA (5′-N-[adenine-2,8-3H]-ethylcarboxamidoadenosine) and an adenosine A2a membrane. As the adenosine A2a membrane, a cell membrane prepared from HEK-293 cells transfected with human adenosine A2a receptor was used. The membrane used for the test was prepared by incubating with a radioligand until equilibrium was reached. In order to separate the radioligand-bound membrane, the unbound radioligand was separated by using Packard filtermate Harverster and glass filter plates.
10 μL of test compound dissolved in binding buffer (50 mM Tris, 10 mM MgCl2, 1 mM EDTA pH 7.4) and 20 μL of [3H]-NECA (final concentration of 37 nM) or reference inhibitor was mixed with 20 μL of A2a membrane in an unbound 96-well plate and incubated at room temperature for one hour. Prior to filtration, a 96-well harvest filter plate was coated with 0.33% polyethylenimine for 30 minutes and then washed with assay buffer. The binding reaction was transferred to the filter plate and washed three times with wash buffer. The dish was then dried, scintillant was added, and radioactivity was counted in a scintillation counter (Topcount NXT, Packard).
The binding affinity IC50 (μM) for the human adenosine A2a receptor obtained according to the above experimental method is shown in the table below.

Chain of human adenosine A2a receptor (P29274 whole entry): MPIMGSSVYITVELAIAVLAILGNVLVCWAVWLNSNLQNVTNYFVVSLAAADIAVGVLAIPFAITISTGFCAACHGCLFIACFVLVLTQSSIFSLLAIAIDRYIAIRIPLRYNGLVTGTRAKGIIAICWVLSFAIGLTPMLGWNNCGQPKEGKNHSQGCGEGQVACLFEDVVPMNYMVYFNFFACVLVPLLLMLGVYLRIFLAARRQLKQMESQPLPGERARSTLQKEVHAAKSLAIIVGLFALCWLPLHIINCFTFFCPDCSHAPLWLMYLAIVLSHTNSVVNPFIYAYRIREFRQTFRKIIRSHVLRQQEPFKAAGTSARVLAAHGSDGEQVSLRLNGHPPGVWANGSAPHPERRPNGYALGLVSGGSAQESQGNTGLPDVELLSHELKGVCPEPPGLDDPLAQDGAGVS

| Structure (SMILES) | IC50 |
| --- | --- |
| COC[C@H](Nc1nc(N)n2nc(-c3ccco3)nc2n1)C(=O)N1CCN(CC(C)(C)O)CC1 [Example 399, (S)-2-((7-amino-2-(furan-2-yl)-[1,2,4]triazolo[1,5-a][1,3,5]triazin-5-yl)amino)-1-(4-(2-hydroxy-2-methylpropyl)piperazin-1-yl)-3-methoxypropan-1-one] | 5 nM |
| CCCCCCN1CCN(C(=O)[C@@H]2CCCN2c2nc(N)n3nc(-c4ccco4)nc3n2)CC1 [Example 301, (S)-(1-(7-amino-2-(furan-2-yl)-[1,2,4]triazolo[1,5-a][1,3,5]triazin-5-yl)pyrrolidin-2-yl)(4-hexylpiperazin-1-yl)methanone] | 3 nM |
| CCCCN1CCN(C(=O)[C@@H](Nc2nc(N)n3nc(-c4ccco4)nc3n2)C2CCCCC2)CC1 [Example 187, (S)-2-((7-amino-2-(furan-2-yl)-[1,2,4]triazolo[1,5-a][1,3,5]triazin-5-yl)amino)-1-(4-butylpiperazin-1-yl)-2-cyclohexylethan-1-one] | 10 nM |
| Nc1nc(N2CCC[C@H]2C(=O)N2CCN(S(=O)(=O)CC3CC3)CC2)nc2nc(-c3ccco3)nn12 [Example 68, (S)-(1-(7-amino-2-(furan-2-yl)-[1,2,4]triazolo[1,5-a][1,3,5]triazin-5-yl)pyrrolidin-2-yl)(4-((cyclopropylmethyl)sulfonyl)piperazin-1-yl)methanone] | 9 nM |
| CCCCN1CCN(C(=O)[C@@H]2CCCN2c2cc3nc(-c4ccco4)nn3c(N)n2)CC1 [Example 361, (S)-(1-(5-amino-2-(furan-2-yl)-[1,2,4]triazolo[1,5-c]pyrimidin-7-yl)pyrrolidin-2-yl)(4-butylpiperazin-1-yl)methanone] | 9 nM |
| Nc1nc(N2CCC[C@H]2C(=O)N2CCN(CC(F)F)CC2)nc2oc(-c3ccco3)nc12 [Example 269, (S)-(1-(7-amino-2-(furan-2-yl)oxazolo[5,4-d]pyrimidin-5-yl)pyrrolidin-2-yl)(4-(2,2-difluoroethyl)piperazin-1-yl)methanone] | 39 nM |
| Nc1nc(N2CCC[C@H]2C(=O)N2CCN(c3cnccn3)CC2)nc2nc(-c3ccco3)nn12 [Example 126, (S)-(1-(7-amino-2-(furan-2-yl)-[1,2,4]triazolo[1,5-a][1,3,5]triazin-5-yl)pyrrolidin-2-yl)(4-(pyrazin-2-yl)piperazin-1-yl)methanone] | 9 nM |
| CC1CN(C(=O)[C@H](C)Nc2nc(N)n3nc(-c4ccco4)nc3n2)CC(C)N1C(=O)N1CCOCC1 (stereo partly drawn) [Example 129, (2S)-2-((7-amino-2-(furan-2-yl)-[1,2,4]triazolo[1,5-a][1,3,5]triazin-5-yl)amino)-1-(3,5-dimethyl-4-(morpholine-4-carbonyl)piperazin-1-yl)propan-1-one] | 10 nM |
| CC[C@H](Nc1nc(N)n2nc(-c3ccco3)nc2n1)C(=O)N1CCN(c2nccs2)CC1 [Example 248, (S)-2-((7-amino-2-(furan-2-yl)-[1,2,4]triazolo[1,5-a][1,3,5]triazin-5-yl)amino)-1-(4-(thiazol-2-yl)piperazin-1-yl)butan-1-one] | 13 nM |
| C[C@H](Nc1nc(N)n2nc(-c3ccco3)nc2n1)C(=O)N1CCN(Cc2ccc(F)cc2)CC1 [Example 23, (S)-2-((7-amino-2-(furan-2-yl)-[1,2,4]triazolo[1,5-a][1,3,5]triazin-5-yl)amino)-1-(4-(4-fluorobenzyl)piperazin-1-yl)propan-1-one] | 61 nM |
| Cn1cc(N2CCN(C(=O)[C@@H]3CCCN3c3nc(N)n4nc(-c5ccco5)nc4n3)CC2)cn1 [Example 321, (S)-(1-(7-amino-2-(furan-2-yl)-[1,2,4]triazolo[1,5-a][1,3,5]triazin-5-yl)pyrrolidin-2-yl)(4-(1-methyl-1H-pyrazol-4-yl)piperazin-1-yl)methanone] | 2 nM |
| Cn1cnc(C(=O)N2CCN(C(=O)[C@@H]3CCCN3c3nc(N)n4nc(-c5ccco5)nc4n3)CC2)c1 [Example 102] | 10 nM |
| CCCCN1CCN(C(=O)[C@@H](Nc2nc(N)n3nc(-c4ccco4)nc3n2)c2ccccc2)CC1 [Example 190, (S)-2-((7-amino-2-(furan-2-yl)-[1,2,4]triazolo[1,5-a][1,3,5]triazin-5-yl)amino)-1-(4-butylpiperazin-1-yl)-2-phenylethan-1-one] | 8 nM |
| Nc1nc(N2CCC[C@H]2C(=O)N2CCN(c3ccccc3F)CC2)nc2nc(-c3ccco3)nn12 [Example 120, (S)-(1-(7-amino-2-(furan-2-yl)-[1,2,4]triazolo[1,5-a][1,3,5]triazin-5-yl)pyrrolidin-2-yl)(4-(2-fluorophenyl)piperazin-1-yl)methanone] | 6 nM |
| Nc1nc(N2CCC[C@H]2C(=O)N2CCN(C(=O)c3ccccc3)CC2)nc2nc(-c3nccs3)nn12 [Example 192] | 17 nM |
| Nc1nc(N2CCC[C@H]2C(=O)N2CCN(CC(F)(F)C(F)(F)C(F)(F)F)CC2)nc2nc(-c3ccco3)nn12 [Example 228, (S)-(1-(7-amino-2-(furan-2-yl)-[1,2,4]triazolo[1,5-a][1,3,5]triazin-5-yl)pyrrolidin-2-yl)(4-(2,2,3,3,4,4,4-heptafluorobutyl)piperazin-1-yl)methanone] | 2 nM |
| CC(C)(O)C(=O)N1CCN(C(=O)[C@@H]2CCCN2c2nc(N)n3nc(-c4ccco4)nc3n2)CC1 [Example 274, 1-(4-((7-amino-2-(furan-2-yl)-[1,2,4]triazolo[1,5-a][1,3,5]triazin-5-yl)-L-prolyl)piperazin-1-yl)-2-hydroxy-2-methylpropan-1-one] | 8 nM |
| CCC(O)(CC)CN1CCN(C(=O)[C@@H](Nc2nc(N)n3nc(-c4ccco4)nc3n2)C(C)C)CC1 [Example 348, (S)-2-((7-amino-2-(furan-2-yl)-[1,2,4]triazolo[1,5-a][1,3,5]triazin-5-yl)amino)-1-(4-(2-ethyl-2-hydroxybutyl)piperazin-1-yl)-3-methylbutan-1-one] | 5 nM |
| CCCCN1CCN(C(=O)[C@@H](Nc2nc(N)n3nc(-c4ccco4)nc3n2)C2CCCC2)CC1 [Example 178, (S)-2-((7-amino-2-(furan-2-yl)-[1,2,4]triazolo[1,5-a][1,3,5]triazin-5-yl)amino)-1-(4-butylpiperazin-1-yl)-2-cyclopentylethan-1-one] | 10 nM |
| CN(C(=O)C1CCN(C(=O)[C@@H]2CCCN2c2nc(N)n3nc(-c4ccco4)nc3n2)CC1)c1ccccc1 [Example 133, 1-((7-amino-2-(furan-2-yl)-[1,2,4]triazolo[1,5-a][1,3,5]triazin-5-yl)-L-prolyl)-N-methyl-N-phenylpiperidin-4-carboxamide] | 11 nM |
| Nc1nc(N2CCC[C@@H]2C(=O)N2CCN(Cc3ccc(F)cc3F)CC2)nc2nc(-c3ccco3)nn12 [Example 96, (R)-(1-(7-amino-2-(furan-2-yl)-[1,2,4]triazolo[1,5-a][1,3,5]triazin-5-yl)pyrrolidin-2-yl)(4-(2,4-difluorobenzyl)piperazin-1-yl)methanone] | 1630 nM |
| CCC(F)(F)CN1CCN(C(=O)[C@@H]2CCCN2c2cc3nc(-c4ccco4)nn3c(N)n2)CC1 [Example 295, (S)-(1-(5-amino-2-(furan-2-yl)-[1,2,4]triazolo[1,5-c]pyrimidin-7-yl)pyrrolidin-2-yl)(4-(2,2-difluorobutyl)piperazin-1-yl)methanone] | 1 nM |
